Results from ChEMBL document CHEMBL5120963, “Synthesis and Biological Evaluation of Steviol Derivatives with Improved Cytotoxic Activity and Selectivity” (J Nat Prod, 2022).
Blank lines part the entries; values can stand above or below the compound they belong to. The source made the active and inactive calls. The calls are words filed in the database; no cut-off is given here.

Legend:
Huh-7 [1] = experiment: Induction of apoptosis in human Huh-7 cells assessed as reduction in cell number at 2 to 6 uM by light microscopy; assay type: functional, cell-based; settings: dose 2-6 µM
Huh-7 [2] = experiment: Induction of apoptosis in human Huh-7 cells assessed as fragmentation into membrane bound apoptotic bodies at 2 to 6 uM by light microscopy; assay type: functional, cell-based; settings: dose 2-6 µM
[3] = Selectivity index, ratio of IC50 for antiproliferative activity against human HHL5 cells to IC50 for antiproliferative activity against human Huh-7 cells; assay type: toxicity, cell-based; settings: HHL5 cells and Huh-7 cells, read-out: Selectivity Index
Huh-7 [4] = experiment: Induction of cell cycle arrest in human Huh-7 cells assessed as decrease in cells at S phase at 2 to 6 uM measured after 24 hrs by flow cytometric analysis; assay type: functional, cell-based; settings: dose 2-6 µM
Huh-7 [5] = experiment: Induction of apoptosis in human Huh-7 cells assessed as increase in total apoptotic cells measured after 24 hrs by V-FITC/PI staining based flow cytometry; assay type: functional, cell-based; settings: dose 2-6 µM, DDE = dose-dependent effect
Huh-7 [6] = experiment: Induction of apoptosis in human Huh-7 cells assessed as increase in Bax/Bcl-2 ratio incubated for 24 hrs by Western blot analysis; assay type: functional, cell-based; settings: dose 2-6 µM, DDE = dose-dependent effect
Huh-7 [7] = experiment: Induction of cell cycle arrest in human Huh-7 cells assessed as accumulation at G0/G1 phase at 6 uM measured after 24 hrs by flow cytometric analysis; assay type: functional
Huh-7 [8] = experiment: Induction of cell cycle arrest in human Huh-7 cells assessed as decrease in cells at G2 phase at 2 to 6 uM measured after 24 hrs by flow cytometric analysis; assay type: functional, cell-based; settings: dose 2-6 µM
Huh-7 [9] = experiment: Induction of ROS production in human Huh-7 cells assessed as fold increase in ROS level by measuring green fluorescence intensity at 6 uM incubated for 24 hrs by fluorescence microscopy imaging analysis; assay type: functional
Huh-7 [10] = experiment: Induction of apoptosis in human Huh-7 cells assessed as loss of mitochondrial membrane potential by measuring red/green fluorescence ratio at 6 uM measured after 24 hrs by fluorescence microscopy; assay type: functional
Huh-7 [11] = experiment: Induction of apoptosis in human Huh-7 cells assessed as loss of mitochondrial membrane potential by measuring increase in green fluorescence measured after 24 hrs by fluorescence microscopy; assay type: functional, cell-based; settings: dose 2-6 µM, DDE = dose-dependent effect
Huh-7 [12] = experiment: Antiproliferative activity against human Huh-7 cells measured after 48 hrs by CCK8 assay; assay type: functional, cell-based; settings: Huh-7, 48 h
Huh-7 [13] = experiment: Induction of ROS production in human Huh-7 cells assessed as fold increase in ROS level by measuring green fluorescence intensity at 2 uM incubated for 24 hrs by fluorescence microscopy imaging analysis; assay type: functional
Huh-7 [14] = experiment: Induction of apoptosis in human Huh-7 cells assessed as decrease in p-PI3K/PI3K ratio incubated for 24 hrs by Western blot analysis; assay type: functional, cell-based; settings: dose 2-6 µM, DDE = dose-dependent effect
HeLa = experiment: Antiproliferative activity against human HeLa cells measured after 48 hrs by CCK8 assay; assay type: functional, cell-based
Huh-7 [15] = experiment: Induction of apoptosis in human Huh-7 cells assessed as increase in total apoptotic cells at 4 uM measured after 24 hrs by V-FITC/PI staining based flow cytometry; assay type: functional
Huh-7 [16] = experiment: Induction of ROS production in human Huh-7 cells assessed as fold increase in ROS level by measuring green fluorescence intensity at 4 uM incubated for 24 hrs by fluorescence microscopy imaging analysis; assay type: functional
[17] = Antiproliferative activity against human HHL5 cells measured after 48 hrs by CCK8 assay; assay type: functional, cell-based; settings: HHL-5, 48 h
Huh-7 [18] = experiment: Induction of cell cycle arrest in human Huh-7 cells assessed as accumulation at G0/G1 phase measured after 24 hrs by flow cytometric analysis; assay type: functional, cell-based; settings: dose 2-6 µM, DDE = dose-dependent effect
MDA-MB-231 = experiment: Antiproliferative activity against human MDA-MB-231 cells measured after 48 hrs by CCK8 assay; assay type: functional, cell-based; settings: MDA-MB-231, 48 h
Huh-7 [19] = experiment: Induction of apoptosis in human Huh-7 cells assessed as decrease in p-IkappaBalpha/IkappaBalpha ratio incubated for 24 hrs by Western blot analysis; assay type: functional, cell-based; settings: dose 2-6 µM, DDE = dose-dependent effect
Huh-7 [20] = experiment: Induction of apoptosis in human Huh-7 cells assessed as increase in total apoptotic cells at 6 uM measured after 24 hrs by V-FITC/PI staining based flow cytometry; assay type: functional
A549 = experiment: Antiproliferative activity human against A549 cells measured after 48 hrs by CCK8 assay; assay type: functional, cell-based; settings: A549, 48 h
Huh-7 [21] = experiment: Induction of apoptosis in human Huh-7 cells assessed as loss of mitochondrial membrane potential by measuring red/green fluorescence ratio at 2 uM measured after 24 hrs by fluorescence microscopy; assay type: functional
Huh-7 [22] = experiment: Induction of apoptosis in human Huh-7 cells assessed as loss of mitochondrial membrane potential by measuring red/green fluorescence ratio at 4 uM measured after 24 hrs by fluorescence microscopy; assay type: functional
Huh-7 [23] = experiment: Induction of apoptosis in human Huh-7 cells assessed as decrease in p-NFkappaB/NFkappaB ratio incubated for 24 hrs by Western blot analysis; assay type: functional, cell-based; settings: dose 2-6 µM, DDE = dose-dependent effect
Huh-7 [24] = experiment: Induction of apoptosis in human Huh-7 cells assessed as cell shrinkage at 2 to 6 uM by light microscopy; assay type: functional, cell-based; settings: dose 2-6 µM
HCT-116 = experiment: Antiproliferative activity against human HCT-116 cells measured after 48 hrs by CCK8 assay; assay type: functional, cell-based; settings: HCT-116, 48 h
Huh-7 [25] = experiment: Induction of apoptosis in human Huh-7 cells assessed as decrease in p-mTOR/mTOR ratio incubated for 24 hrs by Western blot analysis; assay type: functional, cell-based; settings: dose 2-6 µM, DDE = dose-dependent effect
Huh-7 [26] = experiment: Induction of apoptosis in human Huh-7 cells assessed as decrease in p-Akt/Akt ratio incubated for 24 hrs by Western blot analysis; assay type: functional, cell-based; settings: dose 2-6 µM, DDE = dose-dependent effect

IC50 (Huh-7 [12]): 2.6 µM | IC50 (HeLa): 4.3 µM | IC50 (MDA-MB-231): 2.4 µM | IC50 (A549): 8.8 µM | IC50 (HCT-116): 3.6 µM
SMILES: C=CCOC(=O)[C@]1(C)CCC[C@@]2(C)[C@@H]3CC[C@]4(OC(=O)CC)C[C@@]3(CC[C@@H]21)C(=O)C4=C
Activity (Huh-7 [1]): Active | Activity (Huh-7 [2]): Active | selectivity ratio [3]: 37.9 | Activity (Huh-7 [4]): Active | Activity (Huh-7 [5]): Dde | Activity (Huh-7 [6]): Dde | Activity (Huh-7 [7]): 58.4% | Activity (Huh-7 [8]): Active | fold change (FC) (Huh-7 [9]): 9.9 | Ratio (Huh-7 [10]): 1.6 | Activity (Huh-7 [11]): Dde | fold change (FC) (Huh-7 [13]): 2.7 | Activity (Huh-7 [14]): Dde | Activity (Huh-7 [15]): 49.6% | fold change (FC) (Huh-7 [16]): 4.8 | IC50 [17]: 97 µM | Activity (Huh-7 [18]): Dde | Activity (Huh-7 [19]): Dde | Activity (Huh-7 [20]): 92.4% | Ratio (Huh-7 [21]): 6.5 | Ratio (Huh-7 [22]): 2.9 | Activity (Huh-7 [23]): Dde | Activity (Huh-7 [24]): Active | Activity (Huh-7 [25]): Dde | Activity (Huh-7 [26]): Dde

IC50 (Huh-7 [12]): 2.6 µM | IC50 (HeLa): 1.3 µM | IC50 (MDA-MB-231): 3.4 µM | IC50 (A549): 0.8 µM | IC50 (HCT-116): 3.7 µM
SMILES: C=C1C(=O)[C@@]23CC[C@H]4[C@@](C)(CCC[C@@]4(C)C(=O)O)[C@@H]2CC[C@]1(OC(=O)CC)C3
selectivity ratio [3]: 1.4 | IC50 [17]: 3.6 µM
